One assay concerns Lactobacillus Gaseri. The assay can be described thus: Bacterial growth in media supplemented with polyamines. The note with it: in vitro, various concentrations in growth media. Format: cell-based. The source says: (§1) The inventors next investigated whether culturing several bacteria with beneficial metabolic effects can be affected by presence of polyamines in the growth media. […] To further address whether the general growth of bacteria present in fresh fecal samples is affected, we inoculated fresh mouse fecal content in a growth media supplemented with various concentrations of spermine or spermidine.

In a further assay the test system is Lactobacillus Reuteri. The assay is described as above. The assay is classed as cell-based. As to conditions: in vitro, various concentrations in growth media.
Excerpt: as §1

The subject of assay [1] is Parabacteroides goldsteinii. Described as above. Format: cell-based. The note with it: in vitro, various concentrations in growth media.
Excerpt: as §1

Assay [2] concerns bacterial mix from mouse fecal samples. The assay can be described thus: Growth of bacterial mix from fresh mouse fecal content in media with polyamines. Format: cell-based. As to conditions: in vitro, various concentrations; exponential growth phase.
Excerpt: as §1

Assay [3] deals with ovariectomized mice. As to the kind of experiment: Oral glucose tolerance test (OGTT) in ovariectomized mice gavaged with bacteria. The note with it: oral gavage every second day. The assay is classed as in vivo. As to the method: (§2) Ovariectomy: Mice were anesthetised with Xylazin/Ketamin (injection of 120 μl of a mixture of 120 mg/kg ketamine and 16 mg/kg xylazine) and shaved below the ribs on the back side. Betadine was applied to the area for appropriate disinfection. After a 1-2 cm incision through the skin and the muscle layer just below the ribs, the ovary was localized, the fallopian tube ligated with dissolving suture and the ovary removed. The muscle layer was sutured with dissolving suture, the wound closed with staples and disinfected. The same procedure was performed on the other side. A dose of Tamgesic was administered 4 hours after the surgery, and the staples were removed 7 days after the surgery under isoflurane anaesthesia. The sham-operated animals underwent the same procedure, without ligating the fallopian tube and the ovary excision.
(§3) Single microbe transplantation: Lactobacillus Gasseri (DSM 20604) and Parabacteroides Goldsteinii (DSM 19948) were purchased from DSMZ. Lactobacillus reuteri (PTA-6475) and Akkermansia Muciniphila (BAA835) was purchased from ATCC. […]
(§4) Metabolic Experiments: Oral glucose tolerance tests (OGTT) were performed after 10 hr overnight fasting by oral gavage of glucose bolus ([…] body weight). […] Insulin level during the OGTT was measured with the Mouse Insulin ELISA kit (ref. 10-1247-01, Mercodia), following the manufacturer's instructions.

Assay [4] deals with ovariectomized mice. The assay can be described thus: Insulin tolerance test in ovariectomized mice gavaged with bacteria. The assay is classed as in vivo. As to conditions: 0.5 U/kg insulin, glycemia over 2 h. How it is done:
as §2, §3, §4

As for `NCCCCNCCCN` [spermidine], in the assay on Lactobacillus Gaseri, the “Growth of Lactobacillus Gaseri” value was “increased the growth”. In the assay with Lactobacillus Reuteri, the “Growth of Lactobacillus Reuteri” value was “increased the growth”. Besides, in assay [1], the “Growth of Parabacteroides goldsteinii” value was “increased the growth”. In addition, the “Optical density of fecal bacterial mix” value in assay [2] was “increased the optical density during the exponential growth phase”.

For `NCCCNCCCCNCCCN` [spermine, N, N′-bis (3-aminopropyl)-1,4-butane diamine], in the assay on Lactobacillus Gaseri, the “Growth of Lactobacillus Gaseri” value is reported as “increased the growth”. Further, the “Growth of Lactobacillus Reuteri” value in the assay with Lactobacillus Reuteri is given as “increased the growth”. For the same compound, in assay [1], the “Growth of Parabacteroides goldsteinii” value was “increased the growth”. Further, the “Optical density of fecal bacterial mix” value in assay [2] is “increased the optical density during the exponential growth phase”.

Consider Lactobacillus Reuteri, for which the Oral glucose tolerance entry in the assay with ovariectomized mice [3] is on record as “improved”. The “Insulin sensitivity (insulin tolerance test)” value in the assay with ovariectomized mice [4] is listed as “improved”.

For the origin of these results see patent publication US11883447B2, “Methods and probiotic compositions for the treatment of metabolic diseases and disorders” (Research Development Foundation, priority 2019, dated 2024).
